From US20230037103A1, “USE OF A COMPOUND OF 4-(3-ETHOXY-4-HYDROXYPHENYL) ALKYL KETONE TYPE AGAINST BACTERIA OF THE BURKHOLDERIA CEPACIA COMPLEX” (L’OREAL, priority 2019, published 2023)

Legend:
[1] = system: bacteria of the Burkholderia cepacia complex; test: Sensitivity test (MIC/MBC by agar dilution and broth dilution) on a Burkholderia strain panel; type: cell-based
Experimental: The minimum inhibitory concentration (MIC) and the minimum bactericidal concentration (MBC) of compounds of formula (I) of the invention, in particular EZ, were determined by standardized agar dilution and broth dilution tests, described by Rushton et al. Key role for efflux in the preservative susceptibility and adaptive resistance of Burkholderia cepacia complex bacteria. Antimicrobial Agents and Chemotherapy, 2013. 57(7): p. 2972-2980 using TSA/TSB. The culture was carried out at 30° C. in order to be representative of the production and storage of industrial products. Preserving stock solutions (50% w/v) were prepared in DMSO (Sigma-Aldrich, United Kingdom) and volumes were added to the medium so as to achieve the test concentration. The final concentration of DMSO in the presence of the bacterium was verified to be non-toxic (not exceeding 4% v/v) and was included as control condition in the tests in order to eliminate the effect on growth. […] The efficacy and toxicity of the neutralizing solution were evaluated before the experiment, as described in the scientific publication by Lear, J. C., et al. (J. C., et al., Chloroxylenol- and triclosan-tolerant bacteria from industrial sources—Susceptibility to antibiotics and other biocides. International Biodeterioration and Biodegradation, 2006. 57(1): p. 51-56). […]

[2] = system: bacteria of the Burkholderia cepacia complex; test: Reduction in viability of Bcc bacteria (preservative activity); type: cell-based; conditions: in 4 hours
[3] = system: bacteria of the Bcc complex; conditions: levels used in industry; cited from earlier work

Compound: CCOc1cc(CCC(C)=O)ccc1O [EZ, 4-(3-ethoxy-4-hydroxyphenyl)butan-2-one]
- inhibitory activity with respect to bacteria of the Burkholderia cepacia complex [1]: very significant inhibitory activity
- efficacy against a diversified panel of 57 Burkholderia strains ([1]; strains representing species commonly encountered as contaminants, culture at 30° C.): excellent efficacy
- reduction in viability [2]: 6 log

Compound: O=C([O-])c1ccccc1.[Na+] [sodium benzoate]
- efficacy with respect to contamination by bacteria of the Bcc complex [3]: ineffective
